Results from ChEMBL document CHEMBL1136423, “Phosphate ester serum albumin affinity tags greatly improve peptide half-life in vivo” (Bioorg Med Chem Lett, 2003).
Where a SMILES comes first, the peptide text is derived from it. Bridges are numbered along the chain shown (N, C = ends). The star is where a group is joined. X3 = O=C(CCCCCOP(=O)(O)OC1CCC(c2ccccc2)(c2ccccc2)CC1)*; X4 = O=C(CCC(=O)*)NS(=O)(=O)c1ccc2ccccc2c1; X2 = O=C(CCCCCOP(=O)(O)Oc1ccc2ccccc2c1)*; X1 = O=C(CCCCCOP(=O)(O)OCCCCCc1ccccc1)*

How the values were obtained:
Coagulation factor VII [1] = molecular target: T1, Coagulation factor VII (Homo sapiens, UniProt P08709); experiment: Inhibitory activity for the compound against coagulation factor VIIa in presence of 0.1% rabbit serum albumin
T1 sequence (P08709 whole entry): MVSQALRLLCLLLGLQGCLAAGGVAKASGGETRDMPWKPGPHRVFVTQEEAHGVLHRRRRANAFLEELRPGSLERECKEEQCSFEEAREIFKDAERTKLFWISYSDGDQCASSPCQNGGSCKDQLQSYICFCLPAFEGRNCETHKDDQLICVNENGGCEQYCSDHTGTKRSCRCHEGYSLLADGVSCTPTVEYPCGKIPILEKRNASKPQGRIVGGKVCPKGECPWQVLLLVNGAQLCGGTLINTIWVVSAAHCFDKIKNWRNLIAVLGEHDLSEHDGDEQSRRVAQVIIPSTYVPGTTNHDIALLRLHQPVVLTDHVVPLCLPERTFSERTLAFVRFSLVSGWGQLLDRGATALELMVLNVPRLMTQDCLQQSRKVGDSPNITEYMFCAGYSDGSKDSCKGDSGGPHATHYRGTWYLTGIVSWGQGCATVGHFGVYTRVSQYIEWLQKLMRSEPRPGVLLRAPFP

Coagulation factor VII [2] = molecular target: T1, Coagulation factor VII; experiment: Inhibitory activity for the compound against coagulation factor VIIa in presence of 1% ovalbumin
Coagulation factor VII [3] = molecular target: T1, Coagulation factor VII; experiment: Inhibitory activity for the compound against coagulation factor VIIa in presence of 0.1% human serum albumin
[4] = Clearance was measured at the concentration of 1.11 mg/kg in rabbit blood sample; format: ADME, organism-based, Oryctolagus cuniculus; design: dose 1.11 mg/kg
Albumin = Albumin (Homo sapiens, UniProt P02768); experiment: Compound was measured for its retention time in human serum albumin;where k`=tt-t0/t0; tt=retention time of compound and t0=retention time of DMSO
[5] = Half-life was measured at the concentration of 1.11 mg/kg in rabbit blood sample; format: ADME, organism-based, Oryctolagus cuniculus; design: dose 1.11 mg/kg
[6] = Clearance was measured at the concentration of 2.0 mg/kg in rabbit blood sample; format: ADME, organism-based, Oryctolagus cuniculus; design: dose 2 mg/kg
[7] = Half-life was measured at the concentration of 2.0 mg/kg in rabbit blood sample; format: ADME, organism-based, Oryctolagus cuniculus; design: dose 2 mg/kg

Chain of Albumin (P02768 whole entry): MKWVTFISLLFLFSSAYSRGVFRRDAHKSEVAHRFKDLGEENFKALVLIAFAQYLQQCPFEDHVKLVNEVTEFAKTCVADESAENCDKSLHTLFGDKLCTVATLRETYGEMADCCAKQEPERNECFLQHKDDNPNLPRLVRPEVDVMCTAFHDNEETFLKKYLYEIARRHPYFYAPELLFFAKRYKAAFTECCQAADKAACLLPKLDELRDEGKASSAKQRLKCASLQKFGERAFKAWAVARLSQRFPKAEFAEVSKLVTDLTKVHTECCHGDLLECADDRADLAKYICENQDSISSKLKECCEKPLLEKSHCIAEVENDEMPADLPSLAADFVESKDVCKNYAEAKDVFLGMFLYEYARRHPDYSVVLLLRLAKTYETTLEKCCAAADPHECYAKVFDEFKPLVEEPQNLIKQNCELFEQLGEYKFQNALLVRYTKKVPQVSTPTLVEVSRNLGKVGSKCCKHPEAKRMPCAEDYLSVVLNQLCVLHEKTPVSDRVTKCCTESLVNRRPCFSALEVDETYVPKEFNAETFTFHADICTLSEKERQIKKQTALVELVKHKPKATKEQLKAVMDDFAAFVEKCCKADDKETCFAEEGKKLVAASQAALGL

SMILES | IC50 (Coagulation factor VII [1]) | IC50 (Coagulation factor VII [2]) | IC50 (Coagulation factor VII [3]) | clearance [4] | k'/k'+1 (Albumin) | half-life [5] | clearance [6] | half-life [7]
CC[C@H](C)[C@@H]1NC(=O)[C@H](CCCN=C(N)N)NC(=O)[C@@H]2CCCN2C(=O)[C@H](CC(N)=O)NC(=O)[C@H](CC(=O)O)NC(=O)[C@@H](NC(=O)[C@H](CC(C)C)NC(=O)[C@H](C)NC(C)=O)CSSC[C@@H](C(=O)N[C@@H](CCC(N)=O)C(=O)N[C@@H](Cc2ccccc2)C(=O)N[C@H](C(=O)N[C@@H](CCC(=O)O)C(=O)NCC(N)=O)C(C)C)NC(=O)[C@H](Cc2ccc(O)cc2)NC(=O)[C@H](Cc2c[nH]c3ccccc23)NC(=O)[C@H](CCCN=C(N)N)NC(=O)[C@H](CC(=O)O)NC1=O (Ac-ALCDNPRIDRWYCQFVEG-NH2; disulfide 3-13) | 9.7 nM | 9.2 nM | 11 nM | 26.8 mL/min/kg | 0.21 | 4.18 min | – | –
CC[C@H](C)[C@@H]1NC(=O)[C@H](CCCN=C(N)N)NC(=O)[C@@H]2CCCN2C(=O)[C@H](CC(N)=O)NC(=O)[C@H](CC(=O)O)NC(=O)[C@@H](NC(=O)[C@H](CC(C)C)NC(=O)[C@H](C)NC(=O)CCCCCOP(=O)(O)OC2CCC(c3ccccc3)(c3ccccc3)CC2)CSSC[C@@H](C(=O)N[C@@H](CCC(N)=O)C(=O)N[C@@H](Cc2ccccc2)C(=O)N[C@H](C(=O)N[C@@H](CCC(=O)O)C(=O)NCC(N)=O)C(C)C)NC(=O)[C@H](Cc2ccc(O)cc2)NC(=O)[C@H](Cc2c[nH]c3ccccc23)NC(=O)[C@H](CCCN=C(N)N)NC(=O)[C@H](CC(=O)O)NC1=O (X3-ALCDNPRIDRWYCQFVEG-NH2; disulfide 3-13) | 90 nM | 4 nM | 3.4 nM | – | 0.78 | – | 0.185 mL/min/kg | 222 min
CC[C@H](C)[C@@H]1NC(=O)[C@H](CCCN=C(N)N)NC(=O)[C@@H]2CCCN2C(=O)[C@H](CC(N)=O)NC(=O)[C@H](CC(=O)O)NC(=O)[C@@H](NC(=O)[C@H](CC(C)C)NC(=O)[C@H](C)NC(=O)CCCCCOP(=O)(O)OCCCCCc2ccccc2)CSSC[C@@H](C(=O)N[C@@H](CCC(N)=O)C(=O)N[C@@H](Cc2ccccc2)C(=O)N[C@H](C(=O)N[C@@H](CCC(=O)O)C(=O)NCC(N)=O)C(C)C)NC(=O)[C@H](Cc2ccc(O)cc2)NC(=O)[C@H](Cc2c[nH]c3ccccc23)NC(=O)[C@H](CCCN=C(N)N)NC(=O)[C@H](CC(=O)O)NC1=O (X1-ALCDNPRIDRWYCQFVEG-NH2; disulfide 3-13) | 22 nM | 2 nM | 2.4 nM | – | 0.92 | – | 0.505 mL/min/kg | 79.1 min
CC[C@H](C)[C@@H]1NC(=O)[C@H](CCCN=C(N)N)NC(=O)[C@@H]2CCCN2C(=O)[C@H](CC(N)=O)NC(=O)[C@H](CC(=O)O)NC(=O)[C@@H](NC(=O)[C@H](CC(C)C)NC(=O)[C@H](C)NC(=O)CCCCCOP(=O)(O)Oc2ccc3ccccc3c2)CSSC[C@@H](C(=O)N[C@@H](CCC(N)=O)C(=O)N[C@@H](Cc2ccccc2)C(=O)N[C@H](C(=O)N[C@@H](CCC(=O)O)C(=O)NCC(N)=O)C(C)C)NC(=O)[C@H](Cc2ccc(O)cc2)NC(=O)[C@H](Cc2c[nH]c3ccccc23)NC(=O)[C@H](CCCN=C(N)N)NC(=O)[C@H](CC(=O)O)NC1=O (X2-ALCDNPRIDRWYCQFVEG-NH2; disulfide 3-13) | 9.2 nM | 1.9 nM | 2 nM | – | 0.92 | – | 0.707 mL/min/kg | 34.8 min
CC[C@H](C)[C@@H]1NC(=O)[C@H](CCCN=C(N)N)NC(=O)[C@@H]2CCCN2C(=O)[C@H](CC(N)=O)NC(=O)[C@H](CC(=O)O)NC(=O)[C@@H](NC(=O)[C@H](CC(C)C)NC(=O)[C@H](C)NC(=O)CCC(=O)NS(=O)(=O)c2ccc3ccccc3c2)CSSC[C@@H](C(=O)N[C@@H](CCC(N)=O)C(=O)N[C@@H](Cc2ccccc2)C(=O)N[C@H](C(=O)N[C@@H](CCC(=O)O)C(=O)NCC(N)=O)C(C)C)NC(=O)[C@H](Cc2ccc(O)cc2)NC(=O)[C@H](Cc2c[nH]c3ccccc23)NC(=O)[C@H](CCCN=C(N)N)NC(=O)[C@H](CC(=O)O)NC1=O (X4-ALCDNPRIDRWYCQFVEG-NH2; disulfide 3-13) | 24 nM | 3.6 nM | 2.5 nM | – | 0.97 | – | 1.64 mL/min/kg | 30 min
